According to patent US8802711B2, “TRPV1 antagonists” (AbbVie Inc., priority 2011, dated 2014):

Tests used:
[1] = target: T1, human TRPV1 receptor (hTRPV1) (Homo sapiens (Human), UniProt Q8NER1); experiment: Capsaicin activation assay (FLIPR intracellular Ca2+); format: cell-based; conditions: Table 1; inhibition of capsaicin-induced intracellular Ca2+ increase, HEK293 cells expressing human TRPV1; read-out: hTRPV1 cap IC50
Summary of the method: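 HEK293 cells stably expressing human TRPV1, loaded with Calcium-4 dye 90–120 min at room temperature, preincubated 3 min with compound (12-point one-third-log range) before capsaicin (200 nM as 4× solution). Peak FLIPR fluorescence minus baseline expressed as percent of 50 nM capsaicin control response.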

[2] = target: T1, human TRPV1 receptor (hTRPV1); experiment: Acid activation assay (pH 5.0, FLIPR intracellular Ca2+); format: cell-based; conditions: Table 1; 37.5 μM antagonist, percentage of the maximal pH 5.0-induced response remaining; read-out: hTRPV1 H+ (max % remain)
Summary of the method: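 1321N1 astrocytoma cells stably expressing homomeric hTRPV1, loaded with Calcium-4 dye 90–120 min at 25 °C. Compounds, 12-point half-log range, added 3 min before pH 5.0 DPBS/MES challenge; intracellular Ca2+ read by FLIPR fluorescence.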

T1 sequence (Q8NER1 whole entry): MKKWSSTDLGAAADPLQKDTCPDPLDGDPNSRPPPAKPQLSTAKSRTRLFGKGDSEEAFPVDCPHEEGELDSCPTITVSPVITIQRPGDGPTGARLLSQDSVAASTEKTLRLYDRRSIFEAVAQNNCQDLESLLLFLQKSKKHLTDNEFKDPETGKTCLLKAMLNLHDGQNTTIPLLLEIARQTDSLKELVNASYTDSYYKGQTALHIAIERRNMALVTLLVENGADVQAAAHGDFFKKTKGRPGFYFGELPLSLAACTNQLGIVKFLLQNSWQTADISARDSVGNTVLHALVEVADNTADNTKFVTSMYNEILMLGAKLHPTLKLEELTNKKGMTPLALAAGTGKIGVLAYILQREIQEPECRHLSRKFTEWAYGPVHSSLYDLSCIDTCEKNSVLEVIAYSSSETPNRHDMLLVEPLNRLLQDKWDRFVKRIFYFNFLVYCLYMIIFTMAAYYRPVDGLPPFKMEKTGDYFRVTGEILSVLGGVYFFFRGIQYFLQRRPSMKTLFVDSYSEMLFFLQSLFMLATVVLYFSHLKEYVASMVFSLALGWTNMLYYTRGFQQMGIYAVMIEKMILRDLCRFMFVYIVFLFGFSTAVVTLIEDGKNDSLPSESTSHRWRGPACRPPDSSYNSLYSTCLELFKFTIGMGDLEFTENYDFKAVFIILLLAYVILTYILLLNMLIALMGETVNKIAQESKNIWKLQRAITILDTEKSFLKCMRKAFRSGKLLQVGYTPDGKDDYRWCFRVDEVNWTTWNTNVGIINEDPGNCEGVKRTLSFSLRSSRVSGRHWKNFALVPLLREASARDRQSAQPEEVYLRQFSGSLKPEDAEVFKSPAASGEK

SMILES	IC50 [1] [nM]	remaining activity at 37.5 µM [2] [%]
Cc1coc([C@@H]2CC[C@H](NC(=O)Nc3cccc4[nH]ncc34)C2)n1 (single isomer, unassigned) [Example 122, 1-(1H-indazol-4-yl)-3-[(1S*,3R*)-3-(4-methyl-1,3-oxazol-2-yl)cyclopentyl]urea]	20500	68
CC(C)(C)c1ccc(C2CCC(NC(=O)Nc3cccc4[nH]ncc34)C2)cc1 (centres unmarked) [Example 37, 1-[3-(4-tert-butylphenyl)cyclopentyl]-3-(1H-indazol-4-yl)urea]	427	6
Cc1nc(N)cc2c(NC(=O)N[C@@H]3CC[C@H](c4ccccc4)C3)cccc12 [Example 141, 1-(3-amino-1-methylisoquinolin-5-yl)-3-[(1R,3S)-3-phenylcyclopentyl]urea]	> 37500	82
O=C(Nc1cccc2[nH]ncc12)N[C@H]1C[C@H](c2ccccc2)C1 [Example 57, 1-(1H-indazol-4-yl)-3-(trans-3-phenylcyclobutyl)urea]	64	4
Cc1coc([C@H]2CC[C@@H](NC(=O)Nc3cccc4[nH]ncc34)C2)n1 (single isomer, unassigned) [Example 123, 1-(1H-indazol-4-yl)-3-[(1R*,3S*)-3-(4-methyl-1,3-oxazol-2-yl)cyclopentyl]urea]	1110	29
O=C(Nc1cccc2[nH]ncc12)N[C@H]1CC[C@H](c2ccc(C(F)(F)F)cc2)C1 [Example 41, 1-(1H-indazol-4-yl)-3-{(1S,3S)-3-[4-(trifluoromethyl)phenyl]cyclopentyl}urea]	311	1
O=C(Nc1cccc2c(Cl)nccc12)N[C@@H]1CC[C@H](c2ccccc2)C1 [Example 136, 1-(1-chloroisoquinolin-5-yl)-3-[(1R,3S)-3-phenylcyclopentyl]urea]	> 37500	46
CN1C(=O)CCc2c(NC(=O)N[C@@H]3CC[C@@H](c4ccccc4F)C3)cccc21 [Example 99, 1-[(1R,3R)-3-(2-fluorophenyl)cyclopentyl]-3-(1-methyl-2-oxo-1,2,3,4-tetrahydroquinolin-5-yl)urea]	16	46
O=C(Nc1cccc2[nH]ncc12)N[C@@H]1CCC[C@@H](c2ccc(C(F)(F)F)cc2)C1 [Example 31, 1-(1H-indazol-4-yl)-3-{(1R,3R)-3-[4-(trifluoromethyl)phenyl]cyclohexyl}urea]	1840	35
O=C(Nc1cccc2c1C[C@H](O)C2)N[C@H]1CC[C@H](c2ccccc2)C1 [Example 8, 1-[(2R)-2-hydroxy-2,3-dihydro-1H-inden-4-yl]-3-[(1S,3S)-3-phenylcyclopentyl]urea]	123	78
O=C(Nc1cccc2c1C[C@H](O)C2)N[C@@H]1CC[C@@H](c2cccc(F)c2)C1 [Example 90, 1-[(1R,3R)-3-(3-fluorophenyl)cyclopentyl]-3-[(2R)-2-hydroxy-2,3-dihydro-1H-inden-4-yl]urea]	109	54
CSc1ccc([C@H]2CCC(NC(=O)Nc3cccc4[nH]ncc34)C2)cc1 (stereo partly drawn) [Example 46, 1-(1H-indazol-4-yl)-3-{(3S)-3-[4-(methylsulfanyl)phenyl]cyclopentyl}urea]	87	7
O=C(Nc1ccc2c(c1)NC(=O)N(CCO)C2)N[C@@H]1CC[C@@H](c2cccc(F)c2)C1 [Example 115, 1-[(1R,3R)-3-(3-fluorophenyl)cyclopentyl]-3-[3-(2-hydroxyethyl)-2-oxo-1,2,3,4-tetrahydroquinazolin-7-yl]urea]	653	47
O=C(Nc1cccc2c1C[C@@H](O)C2)N[C@H]1CC[C@@H](c2ccccc2F)C1 [Example 89, 1-[(1S,3R)-3-(2-fluorophenyl)cyclopentyl]-3-[(2S)-2-hydroxy-2,3-dihydro-1H-inden-4-yl]urea]	88	15
CN1C(=O)CCc2ccc(NC(=O)N[C@H]3CC[C@H](c4ccccc4)C3)cc21 [Example 106, 1-(1-methyl-2-oxo-1,2,3,4-tetrahydroquinolin-7-yl)-3-[(1S,3S)-3-phenylcyclopentyl]urea]	> 37500	75
Cc1cc2c(NC(=O)N[C@H]3CC[C@H](c4ccccc4)C3)c(F)ccc2cn1 [Example 13, 1-(6-fluoro-3-methylisoquinolin-5-yl)-3-[(1S,3S)-3-phenylcyclopentyl]urea]	13	60
O=C(Nc1cccc2[nH]ncc12)NC1CC[C@H](c2ccc(F)cc2)C1 (stereo partly drawn) [Example 45, 1-[(3S)-3-(4-fluorophenyl)cyclopentyl]-3-(1H-indazol-4-yl)urea]	26	9
Cn1ncc2c(NC(=O)N[C@H]3CC[C@@H](c4ccccc4)C3)cccc21 [Example 25, 1-(1-methyl-1H-indazol-4-yl)-3-[(1S,3R)-3-phenylcyclopentyl]urea]	628	46
COCCN(C)C1Cc2ccc(NC(=O)N[C@@H]3CC[C@H](c4ccccc4)C3)cc2NC1=O (stereo partly drawn) [Example 144, 1-{3-[(2-methoxyethyl)(methyl)amino]-2-oxo-1,2,3,4-tetrahydroquinolin-7-yl}-3-[(1R,3S)-3-phenylcyclopentyl]urea]	> 37500	62
O=C(Nc1cccc2c1C[C@H](O)C2)N[C@H]1C[C@H](c2ccccc2)C1 [Example 59, 1-[(2R)-2-hydroxy-2,3-dihydro-1H-inden-4-yl]-3-(trans-3-phenylcyclobutyl)urea]	435	79
Cn1c(=O)ccc2c(NC(=O)N[C@H]3CC[C@@H](c4cccc(F)c4)C3)cccc21 [Example 79, 1-[(1S,3R)-3-(3-fluorophenyl)cyclopentyl]-3-(1-methyl-2-oxo-1,2-dihydroquinolin-5-yl)urea]	11	75
Cn1ncc2c(NC(=O)N[C@@H]3CC[C@@H](c4ccccc4)C3)cccc21 [Example 18, 1-(1-methyl-1H-indazol-4-yl)-3-[(1R,3R)-3-phenylcyclopentyl]urea]	70	18
O=C(Nc1cccc2c1C[C@@H](O)CC2)N[C@@H]1CC[C@@H](c2ccccc2)C1 [Compound F, 1-[(7S)-7-hydroxy-5,6,7,8-tetrahydronaphthalen-1-yl]-3-[(1R,3R)-3-phenylcyclopentyl]urea, reference compound]	5	6
O=C(Nc1cccc2[nH]ncc12)N[C@@H]1CC[C@H](c2ccc(C(F)(F)F)cc2)C1 [Example 42, 1-(1H-indazol-4-yl)-3-{(1R,3S)-3-[4-(trifluoromethyl)phenyl]cyclopentyl}urea]	17	3
O=C(Nc1cccc2[nH]ncc12)N[C@@H]1CC[C@H](c2cccc(F)c2)C1 [Example 65, 1-[(1R,3S)-3-(3-fluorophenyl)cyclopentyl]-3-(1H-indazol-4-yl)urea]	8	12
